Some test systems named below: IGROV-1; A549; HT-29; DMS-114; SF-295; TK-10; UO-31; SNB-75; MOLT-4; SK-MEL-5; HCT-15; SNB-19; SN12C; KM12; SK-OV-3; K562; NCI-H522.
Assay in all cases: DTP human tumour cell line panel, 48 h

We go through 13 compounds from ChEMBL document CHEMBL1201862, “PubChem BioAssay data set” (2004).

What is called GI50 is the concentration that inhibits growth by half.

Structures are written as SMILES.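 Five concentrations, 48 hours, 96-well plates. GI50 marks 50% less growth.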 The source made the active and inactive calls. Cut-off read from the data, not from the text of the source: active = GI50 up to about 1.1 µM and inactive = higher.

With `O=C1/C(=C/c2ccccc2)CCCC/C1=C\c1ccccc1`, the GI50 in the test on IGROV-1 was > 100 µM (inactive); with A549, 41.7 µM (inactive); in the test with HT-29 it was 16.2 µM (inactive); in the test with DMS-114 it was 42.5 µM (inactive); in the test with SF-295 it was 72.3 µM (inactive); in the test with TK-10, > 100 µM (inactive). In addition, the GI50 with UO-31 was 55 µM (inactive); with SNB-75 it was 66.7 µM (inactive); in the test on MOLT-4, 27.7 µM (inactive); in the test on SK-MEL-5 it was 24.1 µM (inactive); in the test on HCT-15, 32.9 µM; in the test on SNB-19, > 100 µM (inactive). Moreover, the GI50 with SN12C is > 100 µM (inactive); with KM12 it was 41.2 µM (inactive); in the test with SK-OV-3 it was > 100 µM (inactive).
On to `c1cc2c(cc1C1OCC3C(c4ccc5c(c4)OCO5)OCC13)OCO2` (stereo not given), for which the GI50 in the test on IGROV-1 was 75.2 µM (inactive); in the test with A549, 54 µM (inactive); in the test on HT-29, 35.6 µM (inactive); in the test with DMS-114 it was 40.4 µM (inactive); with SF-295, 87.1 µM (inactive); in the test on TK-10, 78.9 µM (inactive). Besides, the GI50 in the test on UO-31 is 57 µM (inactive); with SNB-75, 50.8 µM (inactive); in the test on MOLT-4, 34.1 µM (inactive); in the test with K562, 35.6 µM (inactive); in the test with SK-MEL-5 it was 28.4 µM (inactive); in the test with NCI-H522, 65.8 µM (inactive). For the same compound, the GI50 in the test with HCT-15 was 50.6 µM; in the test on SNB-19 it was > 100 µM (inactive); in the test with SN12C, 92.3 µM (inactive); in the test on KM12, 58.9 µM (inactive); in the test with SK-OV-3, > 100 µM (inactive).
For `COC(=O)CC1NC(=O)[C@@H]1C(C)O` (stereo not given in full), the GI50 in the test on IGROV-1, in the test with A549, with HT-29, in the test with DMS-114, with SF-295 and in the test on TK-10 was > 100 µM (inactive) each time. The GI50 in the test on UO-31 is > 100 µM (inactive); with SNB-75, > 100 µM (inactive); with MOLT-4, > 100 µM (inactive); in the test on K562 it was > 100 µM (inactive); in the test on SK-MEL-5, > 100 µM (inactive); in the test on HCT-15 it was above 100 µM. Besides, the GI50 in the test with SNB-19 and with SN12C was > 100 µM (inactive) in each case.
For `Brc1c2nc3ccccc3nc2n2ccc3ccccc3c12`, the GI50 in the test with IGROV-1 was 47.6 µM (inactive); with A549 it was > 100 µM (inactive); with DMS-114, > 100 µM (inactive); in the test with TK-10, > 100 µM (inactive); with UO-31 it was > 100 µM (inactive); in the test with SNB-75, > 100 µM (inactive). Moreover, the GI50 in the test on MOLT-4 was > 100 µM (inactive); in the test on K562, > 100 µM (inactive); in the test with SK-MEL-5 it was > 100 µM (inactive); in the test with NCI-H522, 69.5 µM (inactive); in the test on HCT-15 it was above 100 µM; with SNB-19, > 100 µM (inactive). For the same compound, the GI50 in the test on SN12C was > 100 µM (inactive); with KM12, > 100 µM (inactive); in the test with SK-OV-3, 2.23 µM (inactive).
On to `COC(=O)CC(c1ccccc1)C1(c2ccccc2)SCCS1` (stereo not given), for which the GI50 is > 290 µM (inactive) with IGROV-1; 272 µM (inactive) with A549; 222 µM (inactive) in the test on HT-29; 121 µM (inactive) in the test with DMS-114; > 290 µM (inactive) with SF-295; > 290 µM (inactive) in the test on TK-10. Besides, the GI50 with MOLT-4 is 58.1 µM (inactive); in the test with K562 it was 133 µM (inactive); with SK-MEL-5 it was 189 µM (inactive); with NCI-H522 it was 106 µM (inactive); with HCT-15, 94.8 µM; in the test on SNB-19 it was > 290 µM (inactive). For the same compound, the GI50 with SN12C is 185 µM (inactive); in the test with KM12, 108 µM (inactive); in the test with SK-OV-3 it was > 290 µM (inactive).
In the case of `Cc1ccccc1NC(=O)C(=O)CC(=O)c1sc(-n2nc(-c3ccccc3)cc2-c2ccccc2)nc1C`, the GI50 in the test with IGROV-1, with A549, with HT-29, in the test on DMS-114, in the test on SF-295 and in the test on TK-10 was > 100 µM (inactive) throughout. For the same compound, the GI50 in the test on UO-31 is > 100 µM (inactive); in the test on SNB-75, > 100 µM (inactive); in the test on MOLT-4, > 100 µM (inactive); with K562, > 100 µM (inactive); with NCI-H522, > 100 µM (inactive); in the test on HCT-15 it was above 100 µM. In addition, the GI50 in the test with SNB-19, with SN12C, in the test on KM12 and with SK-OV-3 was > 100 µM (inactive) throughout.
Turning to `O=C1C(=O)N(c2cc(Cl)ccc2Cl)C(=O)C(=O)C1c1nc2ccccc2s1`, the GI50 with IGROV-1, in the test on A549, in the test on HT-29, in the test on DMS-114, in the test with SF-295 and in the test with TK-10 was > 100 µM (inactive) each time. Also, the GI50 was 16.2 µM (inactive) in the test on UO-31; 49.4 µM (inactive) in the test on SNB-75; 93.1 µM (inactive) with K562; > 100 µM (inactive) in the test on SK-MEL-5; > 100 µM (inactive) in the test on NCI-H522; above 100 µM in the test on HCT-15. Further, the GI50 in the test with SNB-19, with SN12C, with KM12 and in the test on SK-OV-3 was > 100 µM (inactive) throughout.
As to `CN(C)C(=S)/N=c1\ss/c(=N\C(=S)N(C)C)n1-c1ccc2c(c1)OCO2`, the GI50 in the test with IGROV-1 was 10 µM (inactive); in the test on A549, > 100 µM (inactive); in the test with DMS-114 it was 5.11 µM (inactive); in the test with SF-295, > 100 µM (inactive); in the test with TK-10, > 100 µM (inactive); in the test with UO-31, > 100 µM (inactive). Besides, the GI50 with SNB-75 was > 100 µM (inactive); with K562, 4.86 µM (inactive); in the test on SK-MEL-5 it was > 100 µM (inactive); with NCI-H522 it was 15.6 µM (inactive); in the test on HCT-15, above 100 µM; in the test with SNB-19 it was > 100 µM (inactive). Moreover, the GI50 in the test on SN12C, with KM12 and in the test with SK-OV-3 was > 100 µM (inactive) each time.
Take `COC(=O)C(CC(=O)c1c[nH]c2ccccc12)c1c[nH]c2ccccc12` (stereo not given): the GI50 was > 10 µM (inactive) in the test with IGROV-1; 21.2 µM (inactive) in the test with A549; 16.9 µM (inactive) in the test on HT-29; 15.8 µM (inactive) in the test on DMS-114; > 10 µM (inactive) with SF-295; 31.2 µM (inactive) with TK-10. Besides, the GI50 in the test with UO-31 is 18.2 µM (inactive); in the test with SNB-75 it was 21.2 µM (inactive); with MOLT-4, 16.2 µM (inactive); in the test with K562, 18.1 µM (inactive); in the test on SK-MEL-5, 16.4 µM (inactive); in the test with HCT-15, 16.4 µM. Moreover, the GI50 in the test on KM12 was > 10 µM (inactive); in the test on SK-OV-3, 41.9 µM (inactive).
As to `CC1(C)COC(c2ccc(C(F)(F)F)cc2C(O)c2ccc3ccccc3c2)=N1` (stereo not given), the GI50 in the test on IGROV-1 is > 10 µM (inactive); in the test with A549, 99.5 µM (inactive); with HT-29, > 10 µM (inactive); with DMS-114, > 10 µM (inactive); with SF-295 it was 20.7 µM (inactive); in the test with TK-10 it was > 10 µM (inactive). The GI50 is > 10 µM (inactive) with UO-31; 15.8 µM (inactive) in the test with SNB-75; > 10 µM (inactive) in the test with MOLT-4; > 10 µM (inactive) in the test on K562; > 10 µM (inactive) in the test with SK-MEL-5; > 10 µM (inactive) in the test with NCI-H522. The concentration for 50% growth inhibition (GI50) in the test on HCT-15 is above 10 µM; in the test on SNB-19, 57.8 µM (inactive); with SN12C, > 10 µM (inactive); in the test with KM12, > 10 µM (inactive); in the test on SK-OV-3, > 10 µM (inactive).
As for `CC1(C)OC(=O)C(c2cccs2)C(=O)O1`, the GI50 in the test with A549, with HT-29, with DMS-114, with SF-295, in the test with TK-10 and in the test on UO-31 was > 100 µM (inactive) throughout. The GI50 in the test with SNB-75 is > 100 µM (inactive); with MOLT-4, > 100 µM (inactive); in the test on K562, > 100 µM (inactive); with SK-MEL-5 it was > 100 µM (inactive); in the test on NCI-H522, > 100 µM (inactive); in the test with HCT-15, above 100 µM. Further, the GI50 in the test on SNB-19, in the test on SN12C, in the test on KM12 and with SK-OV-3 was > 100 µM (inactive) in each case.
Turning to `COC1[C@@H](OC(C)=O)[C@@H](NC(=O)C(Cl)(Cl)Cl)C(I)[C@@H](N2C(=O)c3ccccc3C2=O)[C@H]1OC` (stereo not given in full), the GI50 is > 100 µM (inactive) with IGROV-1; > 100 µM (inactive) in the test with A549; > 100 µM (inactive) in the test on HT-29; > 100 µM (inactive) in the test with DMS-114; 36.6 µM (inactive) in the test with SF-295; > 100 µM (inactive) in the test with SNB-75. Besides, the GI50 with MOLT-4 was > 100 µM (inactive); in the test with K562, > 100 µM (inactive); in the test with SK-MEL-5, > 100 µM (inactive); in the test with NCI-H522 it was > 100 µM (inactive); with HCT-15, above 100 µM; with SNB-19 it was > 100 µM (inactive). For the same compound, the GI50 was > 100 µM (inactive) with SN12C and 6.59 µM (inactive) in the test with KM12.
Take `COc1ccc(/C=C2\CCC(CCN(C)C)(C3=CCCC3)C2=O)cc1` (stereo not given): the GI50 was 16.7 µM (inactive) with IGROV-1; 19.2 µM (inactive) in the test on A549; 15.5 µM (inactive) with HT-29; 15.6 µM (inactive) with DMS-114; 18.7 µM (inactive) in the test with SF-295; 16.7 µM (inactive) with TK-10. In addition, the GI50 with UO-31 was 14.8 µM (inactive); in the test on SNB-75, 19 µM (inactive); in the test with MOLT-4 it was 23.9 µM (inactive); in the test with K562, 15.7 µM (inactive); in the test on SK-MEL-5, 16.5 µM (inactive); in the test on NCI-H522, 16.1 µM (inactive). The GI50 with HCT-15 was 22.3 µM; in the test on SNB-19, 16.6 µM (inactive); with SN12C, 19.9 µM (inactive); in the test on KM12 it was 18 µM (inactive).
